In US20030176651A1, “Multiprotein-complex comprising a nmda receptor and uses thereof” (priority 2000, published 2003):
“Also recorded” adds a separate entry of the source. Read-outs that look alike come from different tables or passages of the source.

How the values were obtained:
[1] = biological target: multi-protein complex comprising NMDA receptor (NR1, NR2B, PSD-95) (Mus musculus, UniProt P35438+Q01097); test: Ligand affinity chromatography of mouse brain DOC extracts (SDS-PAGE, Western blotting); type: binding
[2] = test system: mouse brain proteins / multi-protein complex (PSD-95, NMDA receptor); test: Peptide affinity chromatography of mouse brain DOC extracts (SDS-PAGE); type: binding; details: 0.5 ml mouse brain DOC extract, Coomassie stained SDS-PAGE
Description: Peptides were solubilised and coupled to affigel-10 in methanol at 5 mg/ml resin for 3 days at 4° C. with constant agitation and residual active side chains were blocked with 0.5 M Tris pH8.8 for 1 day at 4° C. followed by transfer of the resin to PBS.
Initial small-scale experiments were done using 0.5 ml brain DOC extract and 25 μl affigel-10 immobilised peptides. The resins were washed four times with 0.5 ml cold DOC buffer after an incubation period of four hours at 4° C. with constant agitation followed by SDS-PAGE analysis. Large scale samples were prepared by adding 0.5 ml NR2B 1477-1482 peptide derivatised affigel-10 with 50 ml DOC extract followed by an incubation overnight at 4° C. with constant agitation. The resin was then transferred into a chromatography column and washed to baseline with approximately 100 ml cold DOC buffer. Bound proteins were released from the resin by boiling for 30 minutes in 4% SDS-containing buffer and 20 μl aliquots were subsequently used for SDS-PAGE analysis and Western blotting (see Example 2).

[3] = test system: mice with chronic constriction injury (CCI) to the sciatic nerve / naive mice; test: Mechanical allodynia (von Frey filaments, paw withdrawal threshold) after intrathecal drug treatment; type: in vivo, mouse; details: for reversal of mechanical allodynia ipsilateral to CCI: wild type mice, intrathecal in 10 μl, (R)-CPP 100 ρmol, peptide 1 n mole, K-93/KN-92 120 pmol
Description: (§1) Animals were initially anaesthetised with sodium pentobarbital (Sagatal; 0.01 ml/kg (1:4 in saline, i.p.; Rhône Mérieux, UK) and this was then supplemented with halothane O2 (Zeneca, UK). Under aseptic conditions, using a variation of the method of Bennett and Xie for rat [G. J. Bennett and Y. K. Xie, Pain 33, 87 (1988)], the sciatic nerve was exposed at the mid-thigh level proximal to the sciatic trifurcation. Three chromic catgut ligatures (5.0; Ethicon, Edinburgh) separated by 1 mm were tied loosely to constrict the […] as viewed under 40× magnification. Vascular supply was not compromised. The overlying muscle and skin were sutured and the animals were placed in a recovery cage.
(§2) Animals were tested for 6 days prior to surgery in order to establish stable baseline levels for each test and then every one or two days post-operatively (PO). The responses were compared to the average of the pre-surgery values and the contralateral control. The animals were examined daily to ensure that no autotomy was present.
Mechanical allodynia was measured as the withdrawal threshold to calibrated Semmes-Weinstein von Frey filaments (Stoelting, Wood Dale, Ill.) with a bending force of 0.22-84.96 g. The mice were placed in a small rectangular cage. The filaments were applied to the mid-plantar surface of the hindpaw from beneath until the filament started to bend. This stimulus was repeated 8-10 times at 1-2 sec intervals for both the injured and uninjured hindpaws. The mean threshold required to elicit a withdrawal response was recorded. The filaments were applied in ascending order, and a response was characterised as a brief paw flick. The withdrawal threshold was defined from the lower of two consecutive von Frey filaments that elicited a response. Data were expressed as the threshold indentation pressure (i.e. the bending force/the cross-sectional area at the tip of the filament). Mean basal values for pre-operative paw withdrawal threshold were typically around 600 mN.mm^−2.
(§3) Baseline measurements were recorded for thermal hyperalgesia (Hargreaves' test) and mechanical allodynia (von Frey filament test) in mice which had undergone the chronic constriction injury and were at the peak of neuropathy. Mice were anaesthetised with halothane and O2. Drugs were injected intrathecally, in 10 μl saline, at the L4 level of the spinal cord using a 25 μl microsyringe [J. L. Hylden and G. L. Wilcox, Eur. J. Pharmacol., 67, 313 (1980)]. The experimenter was blind to the content of the injections so as to eliminate bias, and dye injections (Pontamine Sky Blue) were performed to determine the site of injection. 15 minutes following injection, mice were re-tested using the same procedures and measurements were taken to determine the effects of drug on hyperalgesia and allodynia. Animals were tested every 5 minutes until readings returned to baseline levels.

[4] = test system: mice with chronic constriction injury (CCI) to the sciatic nerve / naive mice; test: Thermal hyperalgesia (Hargreaves, paw withdrawal latency) after intrathecal drug treatment; type: in vivo, mouse; details: for reversal of thermal hyperalgesia ipsilateral to CCI: wild type mice, intrathecal in 10 μl, (R)-CPP 100 ρmol, peptide 1 n mole, K-93/KN-92 120 pmol
Description: as §1, §2
Thermal hyperalgesia was monitored using Hargreaves' Thermal Stimulator (Linton Instruments, USA). The stimulus was applied to the mid-plantar surface of the hind paw. The withdrawal response was characterised as a brief paw flick. The latency of withdrawal was recorded for the ipsilateral (injured) and the contralateral hindpaws. The means of between 5 and 10 readings were recorded at 3-5 min intervals to ensure no hypersensitivity to the test was established. Mean basal values for pre-operative paw withdrawal latency were typically around 5 sec.
as §3

CaM kinase II = test: Ex vivo CaM kinase II activity assay after topical application to dorsal spinal cord; type: in vivo, mouse; details: for activation of constitutive CaM kinase II activity, wild type versus PSD-95 mutant: naive mice, topical 15 min, NMDA 500 μM with glycine 100 μM, ionomycin 10 μM
Description: Following lumbar L3-6 laminectomy under anaesthesia, mice, which in some cases had previously received chronic constriction injury, were treated by topical application of agents to the dorsal surface of the spinal cord. […] Constitutive (autophosphorylated) and Ca^2+/CM-elicited activity of CaM II kinase [P. I. Hanson et al., Neuron 3, 59 (1989); P. M. Jones and S. J. Persaud, Am. J. Physiol. 274, E708 (1998)] were measured by the following procedure. Samples were rapidly homogenised on ice in 20 mM Na HEPES pH 7.5 with 5% glycerol, 1 mM EGTA, 1 mM dithiothreitol, 1 mM AEBSF, 2 μg.ml^−1 aprotinin, 10 μg.ml^−1 leupeptin, 2 μg.ml^−1 pepstatin, 50 μg.ml^−1 soybean trypsin inhibitor, 25 mM Na β-glycerophosphate, 1 mM Na orthovanadate, 1 mM Na F, 1 μM calyculin A, 1 μM cypermethrin. Following a 30 min incubation on ice with 0.25% CHAPS and clarification, samples were incubated at 4° C. for 2 hours with 3 μg.ml^−1 mouse anti-α-CaM kinase II IgG (clone CBα-2; Zymed) and then with excess Protein G-Sepharose for 1 hour. Aliquots of washed immunoprecipitate were incubated for 20 min at 30° C. (linear range of assay) with 50 μM autocamtide-2, 50 μM ATP (with [^33P] γ-ATP to 0.25 μCi/tube), 10 mM MgCl2 and 8 μg.ml^−1 purified bovine calmodulin (Sigma), in the presence of 0.5 μM PKC-α19-31 and 0.5 μM PKI6-22 amide (to suppress any PKC and PKA-mediated activity respectively) before termination with cold TCA (to 10%), centrifugation and spotting of the supernatant onto P81 phospho-cellulose paper.
Samples were washed extensively in 75 mM H3PO4 and dried before scintillation counting. Constitutive and maximal Ca^2+-evoked activity were measured in the absence and presence of 2 mM CaCl2 respectively. Zero time and substrate-free blanks were less than 2% of maximal activity. Parallel immunoblotting experiments were attempted with phospho-specific antisera for Thr^286-CaM kinase II (the key autophosphorylation site), but gave insufficient signal:noise ratios for further use.

[5] = test system: hippocampal CA1 region slices (MEK inhibitor)
Description: Low resistance glass microelectrodes filled with ACSF were placed into stratum radiatum of the hippocampal CA1 region to record field excitatory postsynaptic potentials (fEPSPs) evoked by presynaptic stimulation pulses delivered once every 50 seconds to the Schaffer collateral/commissural fibers via a bipolar nichrome wire stimulating electrode. At the beginning of each experiment the intensity of presynaptic fiber stimulation was adjusted to evoke fEPSPs that were approximately half of the maximal fEPSP amplitude that could be evoked by strong intensity stimulation. High-frequency stimulation-induced LTP was elicited using two trains of 100 Hz stimulation (1 sec. in duration) delivered with an inter-train interval of 10 seconds. To elicit saturating levels of LTP we delivered 6, one-second-long trains of 100 Hz stimulation with an inter-train interval of 5 minutes. For statistical comparisons (unpaired t-tests, two-tailed, N=number of animals) we compared the average amount of potentiation present 55 to 60 minutes after the first high-frequency stimulation train or 40 to 45 minutes after low-frequency trains of stimulation. […] Similar results were obtained with both internal solutions and the results were combined. […] All experiments and initial data analysis were performed blind except for experiments done on 3 H-Ras^−/− mutant mice. […] All values are reported as mean±SEM.

NMDA receptors = details: rats, cited from earlier work
[6] = CCI wild type mice, intrathecal
[7] = ligand coupled to PharmaLink resin
[8] = naive PSD-95 mutant mice, intrathecal NMDA
[9] = naive wild type mice, intrathecal NMDA 0.25 nmol in 10μl

Molecule: COc1ccc2c(c1)[C@]13CCCC[C@@H]1[C@H](C2)N(C)CC3 [Dextromethorphan]
- proteins / multi-protein complex retained on immobilised ligand [1]: only marginal amounts of both NR1 and NR2B were present, but surprisingly a comparatively large amount of PSD-95

Molecule: SIESDV [NR2B (1477-1482)]
- proteins bound by peptide covalently linked to affigel-10 [2]: revealed several bands at 75 and 100 kDa; also recorded: capable of not only purifying PSD-95 and other members of this family, but also the NMDA receptor itself

Molecule: myristoyl-autocamtide 2-related inhibitory peptide
- reversal of mechanical allodynia ipsilateral to CCI [3]: reversal
- reversal of thermal hyperalgesia ipsilateral to CCI [4]: reversal

Molecule: O=C(O)[C@H]1CN(CCCP(=O)(O)O)CCN1 [(R)-CPP]
- effect on elevated proportion of constitutive CaM kinase II activity ipsilateral to CCI (CaM kinase II; wild type mice with CCI, topical application): entirely prevented
- effect on contralateral responses (mechanical) [3, 6]: In no case was there any significant effect
- effect on paw withdrawal threshold in PSD-95 mutants ([3]; PSD-95 mutant mice with CCI, intrathecal): unaffected
- effect in naive or sham-operated mice ([3]; naive or sham-operated wild type or PSD-95 mutant mice (data not shown)): had no effect
- reversal of mechanical allodynia ipsilateral to CCI [3]: completely reversed
- effect on contralateral responses (thermal) [4, 6]: no effect
- effect on paw withdrawal latency in PSD-95 mutants ([4]; PSD-95 mutant mice with CCI, intrathecal 100 ρmol in 10 μl): had no effect; also recorded: unaffected
- reversal of thermal hyperalgesia ipsilateral to CCI [4]: completely reversed

Molecule: RRAIEREEGQLQLCSRHRES [NR1 C-terminal peptide, last 20 amino acids of NR1, 919-938]
- proteins bound by peptide covalently linked to affigel-10 [2]: showed no evident binding pattern

Molecule: NC(=O)C[C@H](N)C(=O)O [L-Asparagine]
- proteins / multi-protein complex retained on immobilised ligand ([1]; ligand coupled to affigel-10): bound to an array of protein species

Molecule: NC(N)=NCCCCN=C(N)N [Arcaine]
- proteins / multi-protein complex retained on immobilised ligand ([1]; ligand coupled to affigel-10): substantial amount of protein did interact with immobilised Arcaine, including NR1, NR2B and PSD-95

Molecule: COc1ccc(S(=O)(=O)Nc2ccccc2CN(C)C/C=C/c2ccc(Cl)cc2)cc1 [KN92]
- reversal of thermal hyperalgesia ipsilateral to CCI [4]: to a smaller extent

Molecule: NC1CCN(O)C1=O (stereo not drawn) [HA-966, 3-amino-1-hydroxy-2-pyrrolidone]
- proteins / multi-protein complex retained on immobilised ligand [1, 7]: found positive for NMDA receptor channel components and the attached PSD-95
- proteins / multi-protein complex retained on immobilised ligand ([1]; ligand coupled to affigel-10): found positive for NMDA receptor channel components and the attached PSD-95

Molecule: CN[C@H](CC(=O)O)C(=O)O [NMDA, N-methyl-D-aspartate]
- activation of constitutive CaM kinase II activity, wild type versus PSD-95 mutant (CaM kinase II): equivalent
- proteins / multi-protein complex retained on immobilised ligand [1]: only marginal quantities of the multi-protein complex were retained
- effect on mechanical behavioural responses in PSD-95 mutants [3, 8]: unaffected
- induction of mechanical allodynia-like behavioural change [3, 9]: bilaterally mimicked
- effect on thermal behavioural responses in PSD-95 mutants [4, 8]: unaffected
- induction of thermal hyperalgesia-like behavioural change [4, 9]: bilaterally mimicked

Molecule: COc1ccc(S(=O)(=O)N(CCO)c2ccccc2CN(C)C/C=C/c2ccc(Cl)cc2)cc1 [KN93]
- reversal of mechanical allodynia ipsilateral to CCI [3]: reversal
- reversal of thermal hyperalgesia ipsilateral to CCI [4]: reversal

Molecule: C[C@H](CCC(=O)O)C[C@H](C)C[C@H](C)C(=O)/C=C(\O)[C@H](C)C[C@H](C)C/C=C/[C@@H](C)[C@@H](O)[C@@H](C)[C@@H](O)C[C@@H]1CC[C@@](C)([C@H]2CC[C@@](C)([C@@H](C)O)O2)O1 [ionomycin]
- activation of constitutive CaM kinase II activity, wild type versus PSD-95 mutant (CaM kinase II): equivalent

Molecule: NC(CCCP(=O)(O)O)C(=O)O [D-AP5]
- proteins / multi-protein complex retained on immobilised ligand [1, 7]: bound to an array of protein species
- proteins / multi-protein complex retained on immobilised ligand ([1]; ligand coupled to affigel-10): ineffective in the isolation of any protein

Molecule: N#CC(=C(/N)Sc1ccccc1N)/C(C#N)=C(\N)Sc1ccccc1N [U0126]
- fEPSPs after 5 Hz stimulation ([5]; slices from PSD-95 mutant mice continuously exposed to U0126, N=14 slices): 270±12 % of baseline
- effect on induction of LTP by a brief train of 5 Hz stimulation ([5]; wild type slices, 20 μM): strongly suppressed the induction of LTP
- fEPSPs after 5 Hz stimulation ([5]; wild type slices, continuously bathed in U0126 (20 *M) at least 60 min before 5 Hz stimulation, N=11 slices): 137±9 % of baseline

Molecule: NC(CCCP(=O)(O)O)C(=O)O (stereo not drawn) [AP5]
- effect on new learning (NMDA receptors; both types of task): severely impaired
- effect on retention of a previously learned olfactory discrimination or watermaze task (NMDA receptors): no effect

Molecule: KLSSIESDV [NR2B (1474-1482), NR2B C-terminal peptide]
- proteins bound by peptide covalently linked to affigel-10 [2]: did not show any binding pattern similar to the slightly shorter one

Molecule: CC(C(O)c1ccc(O)cc1)N1CCC(Cc2ccccc2)CC1 (stereo not drawn) [Ifenprodil]
- proteins / multi-protein complex retained on immobilised ligand [1]: capable of binding the multi-protein complex and many other molecules, though to a slightly lower degree than the Arcaine resin
